The record followed here is patent US11554115B2, “Quinoline derivative for treatment of triple-negative breast cancer” (CHIA TAI TIANQING PHARMACEUTICAL GROUP CO., LTD., priority 2018, dated 2023).

This experiment relates to advanced or metastatic triple-negative breast cancer (ER-negative, PR-negative, HER2-negative). The experiment is described as follows: Clinical trial in patients with advanced or metastatic triple-negative breast cancer. It counts as in vivo, human. The settings on record: patients aged ≥18 years; capsules alone or in combination with chemotherapy; 12 mg once daily, two-week treatment, one-week rest.

The structures appear in SMILES notation. Counter-ions that a name gives are not always drawn.

As for `COc1cc2c(Oc3ccc4[nH]c(C)cc4c3F)ccnc2cc1OCC1(N)CC1` [1-[[[4-(4-fluoro-2-methyl-1H-indol-5-yl)oxy-6-methoxyquinolin-7-yl]oxy]methyl]cyclopropylamine dihydrochloride], the “efficacy for the treatment of triple-negative breast cancer” value is “effective”.
